# Assay results: patent US20200405708A1, “TREATMENT OF HEREDITARY ANGIOEDEMA” (Attune Pharmaceuticals, Inc., priority 2018, published 2020)
# Values joined by “and” are separate entries in the source; they are usually repeats but may differ in a detail not shown here. Equal entries are not always repeated. “Also recorded” adds a separate entry of the source.
# Tests used:
# [1] = recovery of radiolabeled [14C] Compound A after single oral dosing in rats; type: in vivo, rat
# Procedure: (§1) FIG. 7. A table showing metabolism and pharmacokinetics results of single oral dosing of Compound A. Metabolism study was conducted with radiolabeled [^14C] Compound A.
# [2] = bioavailability after single oral administration, dogs; type: in vivo, dog; conditions: single oral 30 mg/kg
# [3] = molecular target: T1, plasma kallikrein (Homo sapiens, UniProt P03952); test: biochemical inhibition assay of plasma kallikrein
# Procedure: (§2) Selectivity was evaluated by biochemical inhibition on plasma kallikrein relative to other serine proteases, including tissue kallikrein 5, plasmin, Factor Xa, Factor VIIa, thrombin, and tissue plasminogen activator (tPA). Potency was evaluated by biochemical inhibition and contact activation assays in human plasma. Pharmacokinetic exposure was evaluated in monkeys after a single oral administration of Compound A at 15 mg/kg. The no-observed-adverse-effect-level (NOAEL) was evaluated in 14-day non-GLP rat and monkey toxicology studies; animals were given daily doses of 100 or 300 mg/kg.
# Target sequence in this assay (P03952 20-638): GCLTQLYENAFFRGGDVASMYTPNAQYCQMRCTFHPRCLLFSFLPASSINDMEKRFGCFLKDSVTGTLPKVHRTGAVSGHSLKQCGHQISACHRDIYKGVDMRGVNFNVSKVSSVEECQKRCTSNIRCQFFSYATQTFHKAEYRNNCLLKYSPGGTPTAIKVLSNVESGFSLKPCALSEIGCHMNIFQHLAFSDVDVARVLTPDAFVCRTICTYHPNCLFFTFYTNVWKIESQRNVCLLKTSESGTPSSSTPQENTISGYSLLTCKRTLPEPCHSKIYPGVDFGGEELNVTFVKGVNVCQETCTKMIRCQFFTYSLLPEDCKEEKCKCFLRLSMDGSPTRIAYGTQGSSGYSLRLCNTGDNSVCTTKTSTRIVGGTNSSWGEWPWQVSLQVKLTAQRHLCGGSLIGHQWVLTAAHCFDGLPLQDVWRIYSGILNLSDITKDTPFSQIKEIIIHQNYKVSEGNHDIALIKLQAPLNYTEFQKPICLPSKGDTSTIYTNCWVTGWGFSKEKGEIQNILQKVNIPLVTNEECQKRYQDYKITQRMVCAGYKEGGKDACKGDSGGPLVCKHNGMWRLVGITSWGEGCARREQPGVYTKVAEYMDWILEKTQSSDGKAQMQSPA
# [4] = test system: tissue kallikrein 5, tissue kallikrein 7, tissue kallikrein 14, plasmin, Factor Xa, Factor VIIa, thrombin, tissue plasminogen activator (tPA); test: selectivity by biochemical inhibition versus other serine proteases
# Procedure: as §2
# [5] = 14-day non-GLP rat and monkey toxicology studies; type: in vivo; conditions: daily doses of 100 or 300 mg/kg
# Procedure: as §2
# [6] = test system: cytochrome P450 (CYP); test: cytochrome P450 inhibition; type: in vitro ADME
# [7] = 28-day repeat dose general toxicity study in rats
# [8] = single dose safety pharmacology in rat and monkey; type: in vivo
# Source text: FIG. 9. A table showing safety pharmacology of Compound A single dose in rat and monkey.
# [9] = bioavailability after single oral administration, monkeys; type: in vivo, monkey; conditions: single oral 30 mg/kg
# [10] = single-ascending-dose and food effect pharmacokinetics in healthy male participants; type: in vivo; design: Mean C24: unit not given here; conditions: human; for AUCinf, geometric mean (geometric % CV) / Cmax, geometric mean (geometric % CV): n = 6; for Mean Cmax: in ng/mL; for Mean AUCinf: in ng·h/mL
# Procedure: (§3) A randomized, double-blind, placebo-controlled single ascending dose and crossover food effect study
# (§4) 48 healthy male participants (6 active:2 placebo in each of the 6 dose cohorts) received a single daily dose of Compound A 50 mg, 100 mg, 150 mg, 200 mg, 400 mg, or 800 mg. Subjects in the 100 mg dose cohort received first dose of Compound A under fasted condition in period 1 and after a 7-day washout, a second dose 30 minutes after the start of a high fat, high caloric meal in period 2. Serial blood draws were collected to calculate PK parameters, including area under the curve (AUC) from time zero to infinity (AUC), maximum concentration (Cmax), time of maximum concentration (Tmax), and half-life. Safety measures including treatment-emergent adverse events (TEAEs) were assessed.
# [11] = 28-day repeat dose general toxicity study in monkeys; type: in vivo, monkey
# Procedure: FIG. 8. Graphic representation of 28-day repeat exposure in monkey toxicology study (NOAEL (100 mg/kg/day) at Day 28.
# [12] = metabolism and pharmacokinetics studies of single oral dosing, all species; type: in vivo
# Procedure: as §1
# [13] = toxicology and genotoxicity studies
# Source text: FIG. 10. A table showing toxicology/genotoxicity of Compound A.
# [14] = safety and tolerability in single-ascending-dose study, healthy male participants; type: in vivo, human; conditions: all 6 dose cohorts
# Procedure: as §3, §4
# [15] = molecular target: T1, plasma kallikrein; test: contact activation assay in human plasma (ex vivo); type: biochemical; design: from tissue; host or cells: human plasma
# Procedure: as §2
# Target sequence in this assay (P03952 391-638 limits assumed): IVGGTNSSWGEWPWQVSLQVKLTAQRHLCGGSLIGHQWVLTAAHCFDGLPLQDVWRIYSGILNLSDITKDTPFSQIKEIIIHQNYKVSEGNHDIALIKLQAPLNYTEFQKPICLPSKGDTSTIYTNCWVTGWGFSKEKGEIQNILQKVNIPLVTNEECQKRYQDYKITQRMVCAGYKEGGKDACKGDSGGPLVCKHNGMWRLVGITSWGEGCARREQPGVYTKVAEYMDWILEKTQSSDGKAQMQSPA
# Target sequence in this assay (P03952 20-390 partner limits assumed): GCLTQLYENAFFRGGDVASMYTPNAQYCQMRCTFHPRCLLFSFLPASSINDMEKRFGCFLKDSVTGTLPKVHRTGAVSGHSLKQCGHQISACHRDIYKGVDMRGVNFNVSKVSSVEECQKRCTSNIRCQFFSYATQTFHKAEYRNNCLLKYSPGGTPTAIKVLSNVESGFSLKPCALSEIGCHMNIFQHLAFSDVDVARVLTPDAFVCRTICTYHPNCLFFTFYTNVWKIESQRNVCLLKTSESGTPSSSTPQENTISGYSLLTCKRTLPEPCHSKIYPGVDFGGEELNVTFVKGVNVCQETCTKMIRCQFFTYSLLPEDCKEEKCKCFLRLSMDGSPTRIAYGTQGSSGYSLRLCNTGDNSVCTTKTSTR
# [16] = bioavailability after single oral administration, rats; type: in vivo, rat; conditions: single oral 30 mg/kg
# [17] = pharmacokinetic exposure after single oral dose in monkeys; type: in vivo, monkey
# Procedure: as §2
# [18] = 100 mg, fed (high fat, high caloric meal)
# [19] = monkeys, single oral dose 15 mg/kg
compound,measurement,setting,value
"Cc1cc(N)nc(C)c1CNC(=O)c1ccnc(Cc2ccc3ncc(Cl)cc3c2)c1 [Compound A, N-((6-amino-2,4-dimethylpyridin-3-yl)methyl)-2-((3-chloroquinolin-6-yl)methyl)isonicotinamide]",recovery of radiolabeled compound (in words),[1],comprehensive recovery of radiolabeled Compound A
same,recovery,[1]; intact and bile duct cannulated rats,99%
same,bioavailability,[2],> 40%
same,IC50,[3],2.7 nM
same,IC90,[3],16.2 nM
same,fold more potent than C1-INH at inhibiting plasma kallikrein,[3]; biochemical inhibition assay,9 fold and ~10 fold
same,selectivity for plasma kallikrein versus other closely related serine proteases,[4],> 2000 fold
same,no-observed-adverse-effect-level (NOAEL),[5],300 mg/kg
same,inhibition of P450 enzymes,[6],does not significantly inhibit P450 enzymes
same,findings at high-dose level,"[7]; 300 mg/kg/day, not considered adverse",decreases in body weight and food consumption
same,NOAEL,[7]; 28-day repeat dose,300 mg/kg/day
same,"mortality or adverse effects on CNS, respiratory, cardiovascular functions",[8],"no mortality or adverse effects were observed on central nervous system, respiratory, and cardiovascular functions"
same,bioavailability,[9],> 40%
same,"AUCinf % Ratio, fed vs. fasted",[10]; 100 mg,150.3%
same,"Cmax % Ratio, fed vs. fasted",[10]; 100 mg,128.5%
same,"AUCinf, geometric mean (geometric % CV)","[10]; 100 mg, fasted",2573 (135.1) ng*hr/mL
same,"Cmax, geometric mean (geometric % CV)","[10]; 100 mg, fasted",297 (236.1) ng/mL
same,"AUCinf, geometric mean (geometric % CV)",[10]; [18],3866 (16.1) ng*hr/mL
same,"Cmax, geometric mean (geometric % CV)",[10]; [18],382 (35.8) ng/mL
same,food effect on PK,"[10]; 100 mg, high fat meal vs fasted",Minimal food effect
same,dose proportionality of AUCinf and Cmax / systemic exposure,"[10]; 50-800 mg, fasted",increased proportionally with dose; also recorded: largely proportional to dose
same,"AUCinf, mean (% CV)","[10]; fasted, 50 mg",2056 (20.5)^ ng*hr/mL
same,"Cmax, mean (% CV)","[10]; fasted, 50 mg",244 (20.1) ng/mL
same,"Half-Life, mean (% CV)","[10]; fasted, 50 mg",6.5 (24.1) Hours
same,"Tmax, mean (% CV)","[10]; fasted, 50 mg",1.8 (43.3) Hours
same,"AUCinf, mean (% CV)","[10]; fasted, 100 mg",3325 (47.3) ng*hr/mL
same,"Cmax, mean (% CV)","[10]; fasted, 100 mg",449 (59.3) ng/mL
same,"Half-Life, mean (% CV)","[10]; fasted, 100 mg",8.0 (33.0) Hours
same,"Tmax, mean (% CV)","[10]; fasted, 100 mg",2.8 (109.7) Hours
same,"AUCinf, mean (% CV)","[10]; fasted, 150 mg",8569 (37.9)^ ng*hr/mL
same,"Cmax, mean (% CV)","[10]; fasted, 150 mg",848 (33.9) ng/mL
same,"Half-Life, mean (% CV)","[10]; fasted, 150 mg",9.7 (15.4) Hours
same,"Tmax, mean (% CV)","[10]; fasted, 150 mg",1.9 (19.6) Hours
same,"Half-Life, mean (% CV)","[10]; fasted, 200 mg",9.8 (11.3) Hours
same,"Tmax, mean (% CV)","[10]; fasted, 200 mg",2.3 (50.2) Hours
same,"AUCinf, mean (% CV)","[10]; fasted, 200 mg (5 subjects)",8382 (30.2)^ ng*hr/mL
same,"Cmax, mean (% CV)","[10]; fasted, 200 mg (5 subjects)",693 (43.0) ng/mL
same,"AUCinf, mean (% CV)","[10]; fasted, 400 mg",14010 (21.1) ng*hr/mL
same,"Cmax, mean (% CV)","[10]; fasted, 400 mg",1351 (18.8) ng/mL
same,"Half-Life, mean (% CV)","[10]; fasted, 400 mg",9.5 (9.9) Hours
same,"Tmax, mean (% CV)","[10]; fasted, 400 mg",2.4 (57.7) Hours
same,"AUCinf, mean (% CV)","[10]; fasted, 800 mg",30180 (35.7) ng*hr/mL
same,"Cmax, mean (% CV)","[10]; fasted, 800 mg",3015 (32.0) ng/mL
same,"Half-Life, mean (% CV)","[10]; fasted, 800 mg",9.0 (9.9) Hours
same,"Tmax, mean (% CV)","[10]; fasted, 800 mg",2.9 (33.3) Hours
same,Mean C24,"[10]; fasted, dose 50",19.3
same,Mean Cmax,"[10]; fasted, dose 50",244
same,Mean AUCinf,"[10]; fasted, dose 50",2056
same,Mean C24,"[10]; fasted, dose 100",27.7
same,Mean Cmax,"[10]; fasted, dose 100",449
same,Mean AUCinf,"[10]; fasted, dose 100",3325
same,Mean C24,"[10]; fasted, dose 150",83.6
same,Mean Cmax,"[10]; fasted, dose 150",848
same,Mean AUCinf,"[10]; fasted, dose 150",8569
same,Mean C24,"[10]; fasted, dose 200",69.2
same,Mean Cmax,"[10]; fasted, dose 200",693
same,Mean AUCinf,"[10]; fasted, dose 200",8382
same,Mean C24,"[10]; fasted, dose 400",124.0
same,Mean Cmax,"[10]; fasted, dose 400",1351
same,Mean AUCinf,"[10]; fasted, dose 400",14010
same,Mean C24,"[10]; fasted, dose 800",274.0
same,Mean Cmax,"[10]; fasted, dose 800",3015
same,Mean AUCinf,"[10]; fasted, dose 800",30180
same,Cmax exposure relative to EC50,"[11]; NOAEL dose, day 28",> 4500 ×
same,24-h exposure relative to EC90,"[11]; monkey, in vivo, 100 mg/kg/day",20 fold
same,Cmax exposure relative to EC90,"[11]; monkey, in vivo, 100 mg/kg/day",> 600 fold
same,findings at high-dose level,"[11]; monkey, in vivo, 300 mg/kg/day",adverse findings in monkeys reversed upon dose reduction to 150 mg/kg/day dose
same,NOAEL,"[11]; monkeys, 28-day repeat dose",100 mg/kg/day
same,bioavailability (in words),[12],good bioavailability in all species
same,genotoxicity or coagulation issues,[13],no genotoxicity or coagulation issues were noted
same,drug-related TEAEs and serious AEs,[14],"No drug-related TEAEs and no serious AEs; also recorded: no moderate or severe TEAEs, no drug-related TEAEs, no SAEs, and no dose limiting toxicity"
same,safety and tolerability (in words),[14],generally safe and well tolerated
same,severity of TEAEs,[14],all TEAEs were mild (grade 1)
same,number of TEAEs observed,[14]; 50-800 mg single dose,29
same,fold more potent than C1-INH at inhibiting plasma kallikrein,[15]; contact activation assay,11 fold and ~10 fold
same,EC50,[15]; human plasma,8.2 nM
same,EC90,[15]; human plasma,61.6 nM
same,bioavailability,[16],> 40%
same,24-h exposure relative to EC90,"[17]; monkey, in vivo, po, 15 mg/kg",4 fold
same,Cmax exposure relative to EC90,"[17]; monkey, in vivo, po, 15 mg/kg",25 fold
same,24-hour exposure (C24) relative to EC50,[17]; [19],30 fold
same,Cmax exposure relative to EC50,[17]; [19],> 180 ×
same,fold below the no-observed-adverse-effect-level (NOAEL),[17]; single dose 15 mg/kg,20 fold
"C1-INH: C1 inhibitor (C1-esterase inhibitor, serpin), which inhibits the activity of plasma kallikrein; comparator [Compound C1-INH]",IC50,[3],25.4 nM
same,IC90,[3],157 nM
same,EC50,[15]; human plasma,92.4 nM
